This is an account of results in patent publication US20220242874A1, “CAMPTOTHECIN DERIVATIVES” (SUN PHARMA ADVANCED RESEARCH COMPANY LIMITED, priority 2019, published 2022).

One data set relates to NCI H187 cells. The experiment in a line: In-vitro cancer cell growth inhibition assay (MTT). The data set is classed as cell-based. The conditions noted are these: Homo sapiens, NCI-H187, read-out: IC50 (nM) NCI H187. How it is done: The compounds of the present invention were evaluated for their ability to inhibit the growth of various cell line models of small cell lung cancer (SCLC), colon cancer, pancreatic cancer and triple negative breast cancer (TNBC) in-vitro. Details of the cell lines and their respective complete growth media are described in Table 3. The growth inhibition assay was carried out as described below. Briefly, cells in complete growth media were seeded in 96-well plates at appropriate cell densities (seeding density details described in Table 3) and incubated at 37° C., 5% CO2 (3-4 hours for NCI-H526, NCI-H69, NCI-H187 and overnight for the rest of the cells). Serial dilutions of test compound in DMSO were added to the cells while maintaining the final DMSO concentration of 0.4%-0.5% in the well. […] Subsequently, MTT (final concentration 0.5 mg/mL in media) was incubated with the cells at 37° C., 5% CO2 for 4-5 hours. The formazan crystals were dissolved overnight at 37° C., 5% CO2 using 100 μL extractant (10% SDS in 0.01N HCl) and quantified using absorbance at 570 nm with reference wavelength 630 nm. Growth inhibition was represented as percent decrease in absorbance compared to vehicle treated cells.

The test system of a further data set is NCI H69 cells. The experiment in a line: In-vitro cancer cell growth inhibition assay (MTT). The data set is classed as cell-based. As to conditions: Homo sapiens, NCI-H69, 144 h, read-out: IC50 (nM) NCI H69. How it is done: (§1) The compounds of the present invention were evaluated for their ability to inhibit the growth of various cell line models of small cell lung cancer (SCLC), colon cancer, pancreatic cancer and triple negative breast cancer (TNBC) in-vitro. Details of the cell lines and their respective complete growth media are described in Table 3. The growth inhibition assay was carried out as described below. Briefly, cells in complete growth media were seeded in 96-well plates at appropriate cell densities (seeding density details described in Table 3) and incubated at 37° C., 5% CO2 (3-4 hours for NCI-H526, NCI-H69, NCI-H187 and overnight for the rest of the cells). Serial dilutions of test compound in DMSO were added to the cells while maintaining the final DMSO concentration of 0.4%-0.5% in the well. Plates were incubated for 96-144 h (the exact duration for each assay is described in Table 3) at 37° C., 5% CO2. Subsequently, MTT (final concentration 0.5 mg/mL in media) was incubated with the cells at 37° C., 5% CO2 for 4-5 hours. The formazan crystals were dissolved overnight at 37° C., 5% CO2 using 100 μL extractant (10% SDS in 0.01N HCl) and quantified using absorbance at 570 nm with reference wavelength 630 nm. Growth inhibition was represented as percent decrease in absorbance compared to vehicle treated cells.

Another data set concerns PANC-1 cells. The experiment in a line: In-vitro cancer cell growth inhibition assay (MTT). The data set is classed as cell-based. The conditions noted are these: Homo sapiens, PANC-1, 96 h, read-out: IC50 (nM) PANC-1. How it is done:
as §1

The test system of another data set is NCI H526 cells. The experiment in a line: In-vitro cancer cell growth inhibition assay (MTT). The format is cell-based. The conditions noted are these: Homo sapiens, NCI-H526, 96-144 h, read-out: IC50 (nM) NCI H526. The procedure: as §1
In another data set the test system is MDA-MB-468 cells. The experiment in a line: In-vitro cancer cell growth inhibition assay (MTT). The data set is classed as cell-based. The conditions noted are these: Homo sapiens, MDA-MB-468, 96 h, read-out: IC50 (nM) MDA-MB-468. The procedure:
as §1

A further data set has as its system MX-1 cells. The experiment in a line: In-vitro cancer cell growth inhibition assay (MTT). As to conditions: Homo sapiens, MX1, 144 h, read-out: IC50 (nM) MX-1. The data set is classed as cell-based. How it is done:
as §1

Another data set has as its system MDA-MB-231 cells. The experiment in a line: In-vitro cancer cell growth inhibition assay (MTT). The conditions noted are these: Homo sapiens, MDA-MB-231, 96 h, read-out: IC50 (nM) MDA-MB-231. The data set is classed as cell-based. The procedure:
as §1

Another data set concerns HT-29 cells. The experiment in a line: In-vitro cancer cell growth inhibition assay (MTT). The format is cell-based. The conditions noted are these: Homo sapiens, HT-29, 96 h, read-out: IC50 (nM) HT-29. How it is done:
as §1

A short description of data set [1]: Buffer stability (phosphate buffer, 37° C., HPLC). The format is physicochemical. As to conditions: 200 μg/ml. How it is done:
The representative compounds were first dissolved in a minimum quantity of DMSO in a volumetric flask and diluted up to the mark with diluent (water: acetonitrile 30:70). […] After the elapsed time, the buffer samples were diluted 4 times with acetonitrile and injected into an HPLC system. Quantification of representative compounds was done by HPLC.
HPLC method: Chromatographic separation was achieved on a Hypersil BDS C18 (100×4.6 mm, 5 μ) column using 25 mM KH2PO4 buffer (pH 7 with TEA): acetonitrile, 90:10 v/v as mobile phase-A and 25 mM KH2PO4 buffer (pH 7 with TEA): acetonitrile 30:70 v/v as mobile phase-B. The gradient started with initially 5% B to 45% B in 10 mins followed by 80% B in 22 mins and held up to 25 mins and then returned to initial conditions at 26 mins and continued up to 30 mins. The injection volume was kept 10 μL and the flow rate was kept at 1.0 mL/min. The UV-Vis Detector was set at 220 nm, the column oven was set at 37° C. and the sample cooler was set at […]. Total chromatographic runtime was 30 min.

Data set [2] is described as follows: Comparison of solubility in water. The data set is classed as physicochemical. An excerpt: Comparison of Solubility of Compound I.4 in Water with SN-38
For data set [3] the following is noted: mouse, 2000 ng/mL, pH 5.5.
Description: (§2) Aliquot of 100 μL were taken from stability samples in pre-labelled micro-centrifuge tubes. 5 μL of cetirizine working internal standard (5 μg/mL) was added to each tube and vortexed well. 1 mL acetonitrile was added to each tube and vortexed well and then centrifuge at 10000 RPM for 5 min at room temperature. The supernatant was collected in ria vials and evaporated to dryness under nitrogen stream. The samples were reconstituted in 1 mL of 0.1% formic acid in water: acetonitrile 30:70 v/v. The prepared samples were analyzed using LC-MS/MS method. Quantification was done against SN-38 standard, prepared at 2000 ng/mL concentration. SN-38 standard prepared by spiking 5 μL of SN-38 working standard to 95 μL of blank mice tumor homogenate to achieve 2000 ng/mL concentration and vortexed well and processed as described.
(§3) LC-MS/MS Method: Chromatographic separation was achieved on Inertsil C8-3 (50×4.6 mm, 5 μ) with a flow rate of 250 μL/min and an injection volume of 10 μL. The sample cooler was maintained at 10° C. The column oven temperature was set to 40° C. The mobile phase consisted of 0.1% formic acid in Milli Q water and acetonitrile in the ratio of 30:70 v/v, respectively. […] The overall chromatographic run time was 4.0 minutes.
(§4) Detection was performed by tandem mass spectrometry (TSQ Quantum, Discovery MAX, Thermo Electron Corporation) and peak areas were integrated using LCquan software version 2.9 QF1.
(§5) 0 hr standard area was considered as 100% for calculation.
The conditions of data set [4]: Camptosar Prescribing Information; cited from earlier work.
Data set [5] in a line: In-vitro stability in mice tumor lysate. As to conditions: for % Remaining in tumor lysate: spiked 2000 ng/mL, pH 5.5, 37° C.
Description: as §2, §3, §4, §5

Structures are written as SMILES. Counter-ions that a name gives are not always drawn. Like-named read-outs stand apart in the source and are kept apart here. Where only a bound is given, the exact number is not on record here.

On to `CCc1c2c(nc3ccc(O)cc13)-c1cc3c(c(=O)n1C2)COC(=O)[C@@]3(CC)OC(=O)OCCSSCCOC(=O)Nc1ccc(N2CCN(C)CC2)cc1.Cl` [Compound I.2, 2-(2-{N-[4-(4-Methylpiperazin-1-yl)phenyl]carbamoyloxy}ethyldisulfanyl)ethyl [(4S)-4,11-diethyl-3,4,12,14-tetrahydro-9-hydroxy-1H-pyrano[3′,4′:6,7]indolizino[1,2-b]quinoline-3,14-(4H,12H)dione-4-yl] carbonate hydrochloride], for which the IC50 with NCI H187 cells was found to be 0.27 nM; with NCI H69 cells it was 1.3 nM; in the data set on PANC-1 cells it was 508 nM; with NCI H526 cells, 1.58 nM; with MDA-MB-468 cells it was 6.6 nM; in the data set on MX-1 cells, 5.9 nM. Moreover, the results for the half-maximal inhibitory concentration (IC50) in the data set with MDA-MB-231 cells and in the data set with HT-29 cells were 112 nM and 31 nM, respectively. Moreover, the “% of Unconverted Compounds of Formula I” value in data set [1] (pH 4.7, 0 hr) is recorded as 100%; in data set [1] (pH 4.7, 2 hr), 97.3%; in data set [1] (pH 4.7, 4 hr), 100%; in data set [1] (pH 4.7, 6 hr), 100%; in [1] (pH 4.7, 8 hr), 100%; in data set [1] (pH 6.0, 0 hr), 100%. The “% of Unconverted Compounds of Formula I” value stood at 95.5% in [1] (pH 6.0, 2 hr); 98.5% in data set [1] (pH 6.0, 4 hr); 100% in data set [1] (pH 6.0, 6 hr); 100% in data set [1] (pH 6.0, 8 hr); 100% in [1] (pH 7.4, 0 hr); 90.1% in data set [1] (pH 7.4, 2 hr). The “% of Unconverted Compounds of Formula I” value in data set [1] (pH 7.4, 4 hr) is listed as 93.5%; in [1] (pH 7.4, 6 hr) it was 88.7%; in data set [1] (pH 7.4, 8 hr), 91.6%.

With `CCc1c2c(nc3ccc(O)cc13)-c1cc3c(c(=O)n1C2)COC(=O)[C@]3(O)CC` [SN-38], in [2], the “Solubility in water” value is “Practically insoluble in water”. Further, the “% Remaining in tumor lysate” value in data set [3] (0 h) was found to be 100.0%; in [3] (1 h), 94.9%; in data set [3] (2 h), 90.7%; in data set [3] (4 h) it was 100.1%; in [3] (6 h) it was 88.9%; in data set [3] (8 h) it was 91.4%. Also, the “protein bound in plasma” value in data set [4] was “About 96%”.

Regarding `CCc1c2c(nc3ccc(O)cc13)-c1cc3c(c(=O)n1C2)COC(=O)[C@@]3(CC)OC(=O)OCCSSCCOC(=O)N(C)c1ccc(N2CCN(C)CC2)cc1` [Compound I.4, 2-(2-{N-Methyl-N-[4-(4-methylpiperazin-1-yl)phenyl]carbamoyloxy}ethyldisulfanyl)ethyl [(4S)-4,11-diethyl-3,4,12,14-tetrahydro-9-hydroxy-1H-pyrano[3′,4′:6,7]indolizino[1,2-b]quinoline-3,14-(4H,12H)dione-4-yl] carbonate dihydrochloride], the “% Remaining in tumor lysate” value in data set [5] (0 hr) was found to be 100.0%; in data set [5] (1 hr), 0.0%; in data set [5] (2 hr), 0.0%; in data set [5] (4 hr) it was 0.0%; in data set [5] (6 hr), 0.0%; in data set [5] (8 hr), 0.0%. For the same compound, the “time after incubation until cleaved to give active SN-38” value in data set [5] (tumor lysate, 37° C.) was at most 1 h. Further, the Solubility in water entry in [2] is given as “Solubility: 100 mg/11 ml in water”. Also, the IC50 was determined as 8.2 nM in the data set on MDA-MB-468 cells, 6.9 nM in the data set on MX-1 cells and 129 nM in the data set with MDA-MB-231 cells.
